Assay results taken from the supplement of paper PMC10307832.

Legend:
Assay in all cases: relative viability (nuclei count vs DMSO), 5 days (fraction); higher = more cells survive
GSK126 + Olaparib = compound: CC[C@H](C)N1C=C(C2=C(C=C(C=C21)C3=CN=C(C=C3)N4CCNCC4)C(=O)NCC5=C(C=C(NC5=O)C)C)C [GSK126] + O=C(c1cc(Cc2n[nH]c(=O)c3ccccc23)ccc1F)N1CCN(C(=O)C2CC2)CC1 [Olaparib] (partner 8 µM)
Method in brief: (§1)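 Relative viability divides the nuclei count in treated wells by that in vehicle wells. Lung cancer cell lines were seeded in 1536-well plates, dosed by pin tool the next day, and fixed and stained after 5 days in one step with final 0.05% Triton X-100, 1% formaldehyde and 1 ug/ml Hoechst. Dosing was a single drug or a fixed anchor-drug dose plus five library-drug doses (not always all listed) in √10 steps, and values are medians of duplicate plates imaged at 4×.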

MLN4924 + Lapatinib = compound: NS(=O)(=O)OC[C@@H]1C[C@@H](n2ccc3c(N[C@H]4CCc5ccccc54)ncnc32)C[C@@H]1O [MLN4924] + CS(=O)(=O)CCNCc1ccc(-c2ccc3ncnc(Nc4ccc(OCc5cccc(F)c5)c(Cl)c4)c3c2)o1 [Lapatinib] (partner 2 µM)
Method in brief: as §1

Carboplatin + Alpelisib = compound: C1CC(C1)(C(=O)O)C(=O)O.[NH2-].[NH2-].[Pt+2] [Carboplatin] + Cc1nc(NC(=O)N2CCC[C@H]2C(N)=O)sc1-c1ccnc(C(C)(C)C(F)(F)F)c1 [Alpelisib] (partner 2 µM)
Method in brief: as §1

GSK126 + Trametinib = compound: CC[C@H](C)N1C=C(C2=C(C=C(C=C21)C3=CN=C(C=C3)N4CCNCC4)C(=O)NCC5=C(C=C(NC5=O)C)C)C [GSK126] + CC(=O)Nc1cccc(-n2c(=O)n(C3CC3)c(=O)c3c(Nc4ccc(I)cc4F)n(C)c(=O)c(C)c32)c1 [Trametinib] (partner 0.02 µM)
Method in brief: as §1

Cell Line	relative viability (GSK126 + Olaparib; first compound 0.08 µM)	relative viability (GSK126 + Olaparib; first compound 0.253 µM)	relative viability (GSK126 + Olaparib; first compound 0.8 µM)	relative viability (GSK126 + Olaparib; first compound 2.53 µM)	relative viability (GSK126 + Olaparib; first compound 8 µM)	relative viability (MLN4924 + Lapatinib; first compound 0.04 µM)	relative viability (MLN4924 + Lapatinib; first compound 0.1265 µM)	relative viability (MLN4924 + Lapatinib; first compound 0.4 µM)	relative viability (MLN4924 + Lapatinib; first compound 1.265 µM)	relative viability (MLN4924 + Lapatinib; first compound 4 µM)	relative viability (Carboplatin + Alpelisib; first compound 0.08 µM)	relative viability (Carboplatin + Alpelisib; first compound 0.253 µM)	relative viability (Carboplatin + Alpelisib; first compound 0.8 µM)	relative viability (Carboplatin + Alpelisib; first compound 2.53 µM)	relative viability (Carboplatin + Alpelisib; first compound 8 µM)	relative viability (GSK126 + Trametinib; first compound 0.08 µM)	relative viability (GSK126 + Trametinib; first compound 0.253 µM)	relative viability (GSK126 + Trametinib; first compound 0.8 µM)	relative viability (GSK126 + Trametinib; first compound 2.53 µM)	relative viability (GSK126 + Trametinib; first compound 8 µM)
HOP-62	0.447	0.506	0.414	0.455	0.428	0.843	0.798	0.205	0.114	0.0815	0.746	0.991	1.09	0.922	0.77	0.406	0.411	0.357	0.383	0.375
IA-LM	1.03	0.832	0.99	0.759	0.75	0.256	0.239	0.103	0.0582	0.0755	0.995	0.904	0.669	0.881	0.465	–	–	–	–	–
LC-2-ad	0.703	0.698	0.67	0.712	0.357	0.561	0.505	0.143	0.104	0.107	0.876	0.906	0.88	0.882	0.786	0.926	0.9	0.91	0.885	0.957
LCLC-97TM1	0.494	0.596	0.413	0.507	0.445	0.853	0.798	0.189	0.11	0.137	0.262	–	0.25	0.256	0.199	0.205	0.2	0.204	0.211	0.209
